ChEMBL document CHEMBL1125591, “Synthesis and antidopaminergic activity of some 3-(aminomethyl)tetralones as analogues of butyrophenone” (J Med Chem, 1991)
pKi: −log10 of the molar value.

How the values were obtained:
[1] = organism: Rattus norvegicus; test: Compound was evaluated for the pA2 values against Dopamine (DA)-induced contraction of isolated rat vas deferens.; format: functional, organism-based; conditions: read-out: pA2 (converted)
[2] = organism: Rattus norvegicus; test: Compound was evaluated for the pA2 values against Norepinephrine (NE)-induced contraction of isolated rat vas deferens; format: functional; conditions: read-out: pA2 (converted)
[3] = organism: Mus musculus; test: Compound was evaluated for the effective dose that causes lethality in aggregated mice (group toxicity antagonism); format: organism-based; conditions: in vivo
[4] = target: D(1A) dopamine receptor (Rattus norvegicus, UniProt P18901); test: Compound was evaluated for its affinity (pKi) to inhibit [3H]SCH-23390 binding to the dopamine receptor D1
D(1A) dopamine receptor, sequence (P18901 whole entry): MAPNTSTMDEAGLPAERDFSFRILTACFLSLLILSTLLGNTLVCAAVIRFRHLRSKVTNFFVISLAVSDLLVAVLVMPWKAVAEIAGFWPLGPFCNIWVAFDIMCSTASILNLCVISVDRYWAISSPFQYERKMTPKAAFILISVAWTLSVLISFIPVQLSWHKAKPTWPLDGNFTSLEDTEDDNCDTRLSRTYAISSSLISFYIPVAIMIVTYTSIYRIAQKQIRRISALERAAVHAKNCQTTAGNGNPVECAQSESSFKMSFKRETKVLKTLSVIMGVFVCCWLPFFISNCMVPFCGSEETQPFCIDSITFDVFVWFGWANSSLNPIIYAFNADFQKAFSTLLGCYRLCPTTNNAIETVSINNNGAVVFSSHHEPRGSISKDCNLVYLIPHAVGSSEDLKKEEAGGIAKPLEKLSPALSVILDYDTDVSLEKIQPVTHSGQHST

[5] = target: D(2) dopamine receptor (Rattus norvegicus, UniProt P61169); test: Compound was evaluated for its affinity (pKi) to inhibit [3H]spiperone binding to the dopamine receptor D2
D(2) dopamine receptor, sequence (P61169 whole entry): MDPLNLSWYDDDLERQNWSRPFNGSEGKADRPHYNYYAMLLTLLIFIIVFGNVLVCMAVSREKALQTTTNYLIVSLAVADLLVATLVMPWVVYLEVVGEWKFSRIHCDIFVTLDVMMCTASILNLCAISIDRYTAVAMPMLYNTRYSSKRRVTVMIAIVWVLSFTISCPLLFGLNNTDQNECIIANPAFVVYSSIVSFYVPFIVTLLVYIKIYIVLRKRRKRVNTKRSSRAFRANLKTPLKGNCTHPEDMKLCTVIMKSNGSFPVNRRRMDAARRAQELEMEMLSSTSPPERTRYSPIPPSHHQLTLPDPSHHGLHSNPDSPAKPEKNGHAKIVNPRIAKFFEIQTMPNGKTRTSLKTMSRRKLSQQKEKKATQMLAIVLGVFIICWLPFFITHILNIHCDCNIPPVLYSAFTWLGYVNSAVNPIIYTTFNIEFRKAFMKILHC

Row | SMILES | Kb [1] | Kb [2] | ED50 [3] | pKi [4] | pKi [5]
1 | O=C1CC(CN2CCC(C(=O)c3ccc(F)cc3)CC2)Cc2ccccc21 (centres undefined) | 35.5 nM | 83.2 nM | 0.055 mg/kg | 6.49 | 
2 | COc1ccccc1N1CCN(CC2CC(=O)c3ccccc3C2)CC1 (centres undefined) | 66.1 nM | 174 nM | 0.349 mg/kg | 5.87 | 
3 | O=C(CCCN1CCN(CC2CC(=O)c3ccccc3C2)CC1)c1ccc(F)cc1 (centres undefined) | 53.7 nM | 178 nM |  | 6.42 | 
4 | O=C(CCCN1CCN(CC2CC(=O)c3ccc(F)cc3C2)CC1)c1ccc(F)cc1 (centres undefined) |  |  | 0.053 mg/kg | 6.04 | 7.11
5 | O=C1CC(CN2CCC(O)(c3ccccc3)CC2)Cc2ccccc21 (centres undefined) |  |  |  | 6.13 | 7.13
6 | O=C(CCCN1CCC(O)(c2ccc(Cl)cc2)CC1)c1ccc(F)cc1 [HALOPERIDOL] | 39.8 nM | 102 nM | 0.02 mg/kg |  | 
